Reference: patent US10597388B2, “Pyridazinone herbicides” (FMC CORPORATION, priority 2014, dated 2020)

Experiments:
Test in all cases: Test C greenhouse herbicide test, pre- and postemergence
Format in all cases: in vivo
[1] = test system: barnyardgrass (Echinochloa crus-galli)
Method in brief: (§1)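 Each species was treated both before emergence, in a loam–sand soil mix, and after emergence, as 1- to 4-leaf seedlings in peat-based potting medium. Plants stayed in the greenhouse 13 to 15 d, then were scored from 0 (no effect) to 100 (complete control) relative to controls.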

[2] = test system: morningglory (Ipomoea coccinea)
Method in brief: as §1

[3] = test system: pigweed (Amaranthus retroflexus)
Method in brief: as §1

[4] = test system: corn (Zea mays)
Method in brief: as §1

[5] = test system: lambsquarters (Chenopodium album)
Method in brief: as §1

[6] = test system: ragweed (common ragweed, Ambrosia elatior)
Method in brief: as §1

[7] = test system: oilseed rape (Brassica napus)
Method in brief: as §1

[8] = test system: blackgrass (Alopecurus myosuroides)
Method in brief: as §1

[9] = test system: galium (catchweed bedstraw, Galium aparine)
Method in brief: as §1

[10] = test system: ryegrass, Italian (Italian ryegrass, Lolium multiflorum)
Method in brief: as §1

[11] = test system: nutsedge, yellow (yellow nutsedge, Cyperus esculentus)
Method in brief: as §1

[12] = test system: velvetleaf (Abutilon theophrasti)
Method in brief: as §1

[13] = test system: crabgrass, large (large crabgrass, Digitaria sanguinalis)
Method in brief: as §1

[14] = test system: foxtail, giant (giant foxtail, Setaria faberii)
Method in brief: as §1

[15] = test system: johnsongrass (Sorghum halepense)
Method in brief: as §1

[16] = test system: waterhemp (common waterhemp, Amaranthus rudis)
Method in brief: as §1

[17] = Postemergence, 31 g ai/ha, scale 0 to 100 (0 no effect, 100 complete control)
[18] = Postemergence, 62 g ai/ha, 0 to 100 scale (0 no effect, 100 complete control)
[19] = Postemergence, 250 g ai/ha, scale 0 to 100, 0 no effect, 100 complete control, 13 to 15 d
[20] = Preemergence, 31 g ai/ha, scale 0 to 100, 0 is no effect, 100 is complete control
[21] = Preemergence, 62 g ai/ha, scale 0 to 100, 0 is no effect, 100 is complete control
[22] = Preemergence, 125 g ai/ha, scale 0 to 100, 0 is no effect, 100 is complete control
[23] = Preemergence, 250 g ai/ha, scale 0 to 100 (0 no effect, 100 complete control)
[24] = postemergence, 125 g ai/ha, scale 0 to 100, 0 no effect, 100 complete control

CC(=O)Oc1c(C)nn(C)c(=O)c1-c1c(C)cc(C)c2ccccc12 [Compound 153]
100: Plant response rating, Barnyardgrass [1, 21] | Plant response rating, Barnyardgrass [1, 22] | Barnyardgrass plant response rating [1, 23] | Morningglory plant response rating [2, 18] | Plant response rating, Morningglory [2, 19] | Plant response rating, Pigweed [3, 20] | Plant response rating, Pigweed [3, 21] | Plant response rating, Pigweed [3, 22] | Pigweed plant response rating [3, 23] | Plant response rating, Lambsquarters [5, 21] | Plant response rating, Lambsquarters [5, 22] | Ragweed plant response rating [6, 23] | Plant response rating, Oilseed Rape [7, 21] | Oilseed Rape plant response rating [7, 23] | Plant response rating, Galium [9, 22] | Galium plant response rating [9, 23] | Plant response rating, Crabgrass, Large [13, 21] | Crabgrass, Large plant response rating [13, 23] | Plant response rating, Foxtail, Giant [14, 21] | Plant response rating, Foxtail, Giant [14, 22] | Foxtail, Giant plant response rating [14, 23] | Waterhemp plant response rating [16, 23]
98: Plant response rating, Morningglory [2, 17] | Plant response rating, Morningglory [2, 22] | Morningglory plant response rating [2, 23] | Morningglory plant response rating [2, 24] | Lambsquarters plant response rating [5, 23] | Plant response rating, Ragweed [6, 22] | Plant response rating, Oilseed Rape [7, 22] | Plant response rating, Galium [9, 19] | Plant response rating, Galium [9, 21] | Galium plant response rating [9, 24] | Plant response rating, Crabgrass, Large [13, 22] | Plant response rating, Foxtail, Giant [14, 20]
40: Plant response rating, Barnyardgrass [1, 17] | Plant response rating, Corn [4, 22]
0: Plant response rating, Corn [4, 20] | Plant response rating, Corn [4, 21]
85: Plant response rating, Barnyardgrass [1, 20] | Plant response rating, Pigweed [3, 17] | Plant response rating, Pigweed [3, 19] | Pigweed plant response rating [3, 24] | Plant response rating, Lambsquarters [5, 17] | Blackgrass plant response rating [8, 18] | Plant response rating, Nutsedge, Yellow [11, 17] | Plant response rating, Nutsedge, Yellow [11, 21] | Plant response rating, Velvetleaf [12, 17] | Velvetleaf plant response rating [12, 18] | Plant response rating, Velvetleaf [12, 20] | Foxtail, Giant plant response rating [14, 18]
50: Crabgrass, Large plant response rating [13, 18] | Crabgrass, Large plant response rating [13, 24] | Plant response rating, Johnsongrass [15, 21]
35: Corn plant response rating [4, 18]
60: Barnyardgrass plant response rating [1, 18]
80: Plant response rating, Blackgrass [8, 17] | Plant response rating, Nutsedge, Yellow [11, 20] | Plant response rating, Nutsedge, Yellow [11, 22] | Plant response rating, Crabgrass, Large [13, 20] | Plant response rating, Foxtail, Giant [14, 17] | Plant response rating, Waterhemp [16, 20]
75: Pigweed plant response rating [3, 18] | Plant response rating, Crabgrass, Large [13, 19]
55: Plant response rating, Crabgrass, Large [13, 17]
90: Plant response rating, Barnyardgrass [1, 19] | Plant response rating, Morningglory [2, 21] | Lambsquarters plant response rating [5, 18] | Ragweed plant response rating [6, 18] | Plant response rating, Ragweed [6, 19] | Plant response rating, Oilseed Rape [7, 17] | Oilseed Rape plant response rating [7, 18] | Plant response rating, Oilseed Rape [7, 19] | Oilseed Rape plant response rating [7, 24] | Plant response rating, Blackgrass [8, 19] | Plant response rating, Blackgrass [8, 20] | Plant response rating, Blackgrass [8, 21] | Blackgrass plant response rating [8, 24] | Plant response rating, Ryegrass, Italian [10, 17] | Plant response rating, Ryegrass, Italian [10, 20] | Plant response rating, Ryegrass, Italian [10, 22] | Nutsedge, Yellow plant response rating [11, 18] | Plant response rating, Nutsedge, Yellow [11, 19] | Plant response rating, Velvetleaf [12, 21] | Velvetleaf plant response rating [12, 23] | Velvetleaf plant response rating [12, 24] | Foxtail, Giant plant response rating [14, 24] | Plant response rating, Waterhemp [16, 19] | Waterhemp plant response rating [16, 24]
10: Plant response rating, Corn [4, 19] | Plant response rating, Johnsongrass [15, 17] | Johnsongrass plant response rating [15, 24]
65: Corn plant response rating [4, 23] | Plant response rating, Johnsongrass [15, 22] | Waterhemp plant response rating [16, 18]
70: Plant response rating, Barnyardgrass ([1]; Postemergence, 125 g ai/ha, scale 0 to 100, 0 is no effect, 100 is complete control) | Plant response rating, Ragweed [6, 17] | Johnsongrass plant response rating [15, 23] | Plant response rating, Waterhemp [16, 17]
5: Johnsongrass plant response rating [15, 18]
25: Corn plant response rating [4, 24] | Plant response rating, Johnsongrass [15, 20]
20: Plant response rating, Corn [4, 17]
15: Plant response rating, Johnsongrass [15, 19]
95: Plant response rating, Morningglory [2, 20] | Plant response rating, Lambsquarters [5, 19] | Plant response rating, Lambsquarters [5, 20] | Lambsquarters plant response rating [5, 24] | Plant response rating, Ragweed [6, 20] | Plant response rating, Ragweed [6, 21] | Ragweed plant response rating [6, 24] | Plant response rating, Oilseed Rape [7, 20] | Plant response rating, Blackgrass [8, 22] | Blackgrass plant response rating [8, 23] | Plant response rating, Galium [9, 17] | Galium plant response rating [9, 18] | Plant response rating, Galium [9, 20] | Ryegrass, Italian plant response rating [10, 18] | Plant response rating, Ryegrass, Italian [10, 19] | Plant response rating, Ryegrass, Italian [10, 21] | Ryegrass, Italian plant response rating [10, 23] | Ryegrass, Italian plant response rating [10, 24] | Nutsedge, Yellow plant response rating [11, 23] | Nutsedge, Yellow plant response rating [11, 24] | Plant response rating, Velvetleaf [12, 19] | Plant response rating, Velvetleaf [12, 22] | Plant response rating, Foxtail, Giant [14, 19] | Plant response rating, Waterhemp [16, 21] | Plant response rating, Waterhemp [16, 22]
